Experimental data: patent US10112937B2, “P2X7 modulators and methods of use” (Janssen Pharmaceutica NV, priority 2013, dated 2018)

What follows are molecules tested against human P2X7 (Homo sapiens (Human), UniProt Q99572) (assay: P2X7 antagonism in human PBMCs (IL-1β release after LPS + Bz-ATP, ELISA)). Settings: human PBMCs, test compound 1 μM.
Chain of human P2X7 (Q99572 whole entry): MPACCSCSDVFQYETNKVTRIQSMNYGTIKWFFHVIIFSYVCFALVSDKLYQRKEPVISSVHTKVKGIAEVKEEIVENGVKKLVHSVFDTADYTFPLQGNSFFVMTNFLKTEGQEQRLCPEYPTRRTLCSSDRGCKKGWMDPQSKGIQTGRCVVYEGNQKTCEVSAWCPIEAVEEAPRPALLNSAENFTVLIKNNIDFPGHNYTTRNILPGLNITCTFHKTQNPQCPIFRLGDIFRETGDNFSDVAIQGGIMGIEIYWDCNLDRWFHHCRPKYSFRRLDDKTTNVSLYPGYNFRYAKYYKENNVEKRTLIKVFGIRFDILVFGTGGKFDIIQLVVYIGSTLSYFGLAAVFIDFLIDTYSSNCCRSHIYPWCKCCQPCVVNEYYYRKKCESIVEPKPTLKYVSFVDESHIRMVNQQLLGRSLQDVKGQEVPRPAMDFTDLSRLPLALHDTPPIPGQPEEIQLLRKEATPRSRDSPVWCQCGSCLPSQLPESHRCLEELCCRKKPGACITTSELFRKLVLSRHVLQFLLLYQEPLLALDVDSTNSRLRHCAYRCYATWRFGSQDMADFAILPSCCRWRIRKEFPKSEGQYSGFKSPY
Assay type: cell-based
Method: P2X7 Antagonism in Human Peripheral Blood Mononuclear Cells (PBMCs) and Human Whole Blood.
Human blood was collected using a blood donor program. PBMCs were isolated from blood using a Ficoll density gradient technique. Briefly, blood was laid on Ficoll solution and centrifuged at RT for 20 minutes at 2000 rpm. The buffy layer (between red blood cells and plasma) was carefully collected by aspiration, washed with PBS and centrifuged again at 1500 rpm for 15 minutes. The resulting cell pellet was washed and plated on 96 well-plates for experiments. For the Human Whole Blood experiments, 150 μl of human blood was platted on 96 well-plates. Lipopolysaccharide (LPS) (30 ng/ml) was added to each well and incubated for 1 hour. Test compounds were then added and incubated for 30 minutes. The P2X7 agonist, 2′(3′)-O-(4-benzoylbenzoyl) adenosine 5′ triphosphate (Bz-ATP) was then added at a final concentration of 0.5 mM (PBMC) or 1 mM (blood). Cells were incubated for an additional 1.5 hours. At that point, supernatant was collected and stored for IL-1β assay using manufacturer's protocol for enzyme-linked immunosorbent assay (ELISA). Data was expressed as percent control, where control is defined as the difference in IL-1β release in LPS+Bz-ATP samples and LPS only samples. Data was plotted as response (% control) versus concentration to generate IC50 values. […] Data are analyzed and graphed on Graphpad Prism 5. For analysis, each concentration point is averaged from triplicate values and the averaged values are plotted on Graphpad Prism.
In the case of O=C(c1cccc(Cl)c1Cl)N1CCc2c(-c3ccccc3)n[nH]c2C1 [Example 100, 6-[(2,3-Dichlorophenyl)carbonyl]-3-phenyl-4,5,6,7-tetrahydro-1H-pyrazolo[3,4-c]pyridine], the “PBMC 1 μM (% control)” value is reported as 9.2 % control.
For Cn1nc(-c2ccccc2)c2c1CN(C(=O)c1cccc(Cl)c1Cl)CC2.Cn1nc2c(c1-c1ccccc1)CCN(C(=O)c1cccc(Cl)c1Cl)C2 [Example 101, 6-[(2,3-Dichlorophenyl)carbonyl]-1-methyl-3-phenyl-4,5,6,7-tetrahydro-1H-pyrazolo[3,4-c]pyridine-6-[(2,3-dichlorophenyl)carbonyl]-2-methyl-3-phenyl-4,5,6,7-tetrahydro-2H-pyrazolo[3,4-c]pyridine (1:1)], the “PBMC 1 μM (% control)” value was 7.6 % control.
Cn1nc2c(c1-c1ccccc1)CCN(C(=O)c1cccc(Cl)c1Cl)C2 [Example 102, 6-[(2,3-Dichlorophenyl)carbonyl]-2-methyl-3-phenyl-4,5,6,7-tetrahydro-2H-pyrazolo[3,4-c]pyridine] was tested, and the “PBMC 1 μM (% control)” value was 18.0 % control.
For Cn1nc(-c2ccccc2)c2c1CN(C(=O)c1cccc(Cl)c1Cl)CC2 [Example 103, 6-[(2,3-Dichlorophenyl)carbonyl]-1-methyl-3-phenyl-4,5,6,7-tetrahydro-1H-pyrazolo[3,4-c]pyridine], the “PBMC 1 μM (% control)” value was 56.0 % control.
For O=C(c1ccnc(Cl)c1Cl)N1CCc2c(-c3ccccc3)n[nH]c2C1 [Example 104, 6-[(2,3-Dichloropyridin-4-yl)carbonyl]-3-phenyl-4,5,6,7-tetrahydro-1H-pyrazolo[3,4-c]pyridine], the “PBMC 1 μM (% control)” value was 8.9 % control.
Cn1nc2c(c1-c1ccc(F)cc1)CCN(C(=O)c1cccc(C(F)(F)F)c1Cl)C2 [Example 105, 6-{[2-Chloro-3-(trifluoromethyl)phenyl]carbonyl}-3-(4-fluorophenyl)-2-methyl-4,5,6,7-tetrahydro-2H-pyrazolo[3,4-c]pyridine] was tested, and the “PBMC 1 μM (% control)” value was 51.0 % control.
For Cn1nc(-c2cccnc2)c2c1CN(C(=O)c1cccc(C(F)(F)F)c1Cl)CC2 [Example 108, 6-{[2-Chloro-3-(trifluoromethyl)phenyl]carbonyl}-1-methyl-3-pyridin-3-yl-4,5,6,7-tetrahydro-1H-pyrazolo[3,4-c]pyridine], the “PBMC 1 μM (% control)” value was 1.1 % control.
With O=C(c1cccc(C(F)(F)F)c1F)N1CCc2c(nnn2-c2ccccn2)C1 [Example 123, (2-Fluoro-3-(trifluoromethyl)phenyl)(1-(pyridin-2-yl)-6,7-dihydro-1H-[1,2,3]triazolo[4,5-c]pyridin-5(4H)-yl)methanone] the “PBMC 1 μM (% control)” value was 22.0 % control.

Same assay, conditions: human PBMCs, test compound 10 μM
With O=C(c1cccc(Cl)c1Cl)N1CCc2c(-c3ccncc3)n[nH]c2C1 [Example 115, 6-[(2,3-Dichlorophenyl)carbonyl]-3-pyridin-4-yl-4,5,6,7-tetrahydro-2H-pyrazolo[3,4-c]pyridine] the “PBMC 10 μM (% control)” value was −3.3 % control.
In the case of O=C(c1ccc(F)cc1Cl)N1CCc2c(nnn2-c2ccccn2)C1 [Example 117, (2-Chloro-4-fluorophenyl)(1-(pyridin-2-yl)-6,7-dihydro-1H-[1,2,3]triazolo[4,5-c]pyridin-5(4H)-yl)methanone], the “PBMC 10 μM (% control)” value is reported as 4.3 % control.
For CC1Cc2c(nnn2-c2ccccn2)CN1C(=O)c1cccc(Cl)c1Cl (centres unmarked) [Example 120, 5-[(2,3-Dichlorophenyl)carbonyl]-6-methyl-1-pyridin-2-yl-4,5,6,7-tetrahydro-1H-[1,2,3]triazolo[4,5-c]pyridine], the “PBMC 10 μM (% control)” value was −3.8 % control.
In the case of CC1Cc2c(nnn2-c2ccccn2)CN1C(=O)c1ccc(F)c(Cl)c1Cl (centres unmarked) [Example 121, 5-[(2,3-Dichloro-4-fluorophenyl)carbonyl]-6-methyl-1-pyridin-2-yl-4,5,6,7-tetrahydro-1H-[1,2,3]triazolo[4,5-c]pyridine], the “PBMC 10 μM (% control)” value is reported as −0.2 % control.
CC1Cc2c(nnn2-c2ncccc2F)CN1C(=O)c1cccc(C(F)(F)F)c1Cl (centres unmarked) [Example 122, 5-{[2-Chloro-3-(trifluoromethyl)phenyl]carbonyl}-1-(3-fluoropyridin-2-yl)-6-methyl-4,5,6,7-tetrahydro-1H-[1,2,3]triazolo[4,5-c]pyridine] was tested, and the “PBMC 10 μM (% control)” value was 0.2 % control.
For Cn1ccc(-n2nnc3c2CCN(C(=O)c2cccc(C(F)(F)F)c2Cl)C3)n1 [Example 127, (2-Chloro-3-(trifluoromethyl)phenyl)(1-(1-methyl-1H-pyrazol-3-yl)-6,7-dihydro-1H-[1,2,3]triazolo[4,5-c]pyridin-5(4H)-yl)methanone], the “PBMC 10 μM (% control)” value was 9.2 % control.
O=C(c1ccc(Cl)cc1F)N1CCc2c(nnn2-c2ccccn2)C1 [Example 129, (4-Chloro-2-fluorophenyl)(1-(pyridin-2-yl)-6,7-dihydro-1H-[1,2,3]triazolo[4,5-c]pyridin-5(4H)-yl)methanone] was tested, and the “PBMC 10 μM (% control)” value was 8.4 % control.
In the case of O=C(c1ccc(F)c(Cl)c1Cl)N1CCc2c(nnn2-c2ccccn2)C1 [Example 130, (2,3-Dichloro-4-fluorophenyl)(1-(pyridin-2-yl)-6,7-dihydro-1H-[1,2,3]triazolo[4,5-c]pyridin-5(4H)-yl)methanone], the “PBMC 10 μM (% control)” value is reported as 3.7 % control.
Cc1c(C(=O)N2CCc3c(nnn3-c3ccccn3)C2)ccc(F)c1F [Example 132, (3,4-Difluoro-2-methylphenyl)(1-(pyridin-2-yl)-6,7-dihydro-1H-[1,2,3]triazolo-[4,5-c]pyridin-5(4H)-yl)methanone] was tested, and the “PBMC 10 μM (% control)” value was 3.8 % control.
In the case of O=C(c1cccc(C(F)(F)F)c1Cl)N1CCc2c(nnn2-c2cccc(F)n2)C1 [Example 135, (2-Chloro-3-(trifluoromethyl)phenyl)(1-(6-fluoropyridin-2-yl)-6,7-dihydro-1H-[1,2,3]triazolo[4,5-c]pyridin-5(4H)-yl)methanone], the “PBMC 10 μM (% control)” value is reported as 1.7 % control.
For COc1ccnc(-n2nnc3c2CCN(C(=O)c2cccc(C(F)(F)F)c2Cl)C3)c1 [Example 136, (2-Chloro-3-(trifluoromethyl)phenyl)(1-(4-methoxypyridin-2-yl)-6,7-dihydro-1H-[1,2,3]triazolo[4,5-c]pyridin-5(4H)-yl)methanone], the “PBMC 10 μM (% control)” value was 5.3 % control.
With C[C@@H]1c2nnn(-c3ncc(F)cn3)c2CCN1C(=O)c1cccc(C(F)(F)F)c1Cl [Example 158, (R)-(2-chloro-3-(trifluoromethyl)phenyl)(1-(5-fluoropyrimidin-2-yl)-4-methyl-6,7-dihydro-1H-[1,2,3]triazolo[4,5-c]pyridin-5(4H)-yl)methanone] the “PBMC 10 μM (% control)” value was 1.1 % control.
With CC1Cc2c(nnn2-c2ncccc2F)CN1C(=O)c1cccc(Cl)c1Cl (centres unmarked) [Example 161, (2,3-Dichlorophenyl)(1-(3-fluoropyridin-2-yl)-6-methyl-6,7-dihydro-1H-[1,2,3]triazolo[4,5-c]pyridin-5(4H)-yl)methanone] the “PBMC 10 μM (% control)” value was −0.9 % control.
For CC1Cc2c(nnn2-c2cc(F)ccn2)CN1C(=O)c1cccc(Cl)c1Cl (centres unmarked) [Example 173, 5-[(2,3-Dichlorophenyl)carbonyl]-1-(4-fluoropyridin-2-yl)-6-methyl-4,5,6,7-tetrahydro-1H-[1,2,3]triazolo[4,5-c]pyridine], the “PBMC 10 μM (% control)” value was 8.8 % control.
CC1c2nnn(-c3ncc(F)cn3)c2CCN1C(=O)c1cccc(Cl)c1Cl (centres unmarked) [Example 174, (2,3-Dichlorophenyl)(1-(5-fluoropyrimidin-2-yl)-4-methyl-6,7-dihydro-1H-[1,2,3]triazolo[4,5-c]pyridin-5(4H)-yl)methanone] was tested, and the “PBMC 10 μM (% control)” value was 4.2 % control.
In the case of CC1c2nnn(-c3ncc(F)cn3)c2CCN1C(=O)c1cccc(C(F)(F)F)c1F (centres unmarked) [Example 175, (2-fluoro-3-(trifluoromethyl)phenyl)(1-(5-fluoropyrimidin-2-yl)-4-methyl-6,7-dihydro-1H-[1,2,3]triazolo[4,5-c]pyridin-5(4H)-yl)methanone], the “PBMC 10 μM (% control)” value is reported as 4.5 % control.
With CC1Cc2c(nnn2-c2cc(F)ccn2)CN1C(=O)c1cccc(C(F)(F)F)c1Cl (centres unmarked) [Example 176, (2-Chloro-3-(trifluoromethyl)phenyl)(1-(4-fluoropyridin-2-yl)-6-methyl-6,7-dihydro-1H-[1,2,3]triazolo[4,5-c]pyridin-5(4H)-yl)methanone] the “PBMC 10 μM (% control)” value was 7.3 % control.
In the case of CC1c2nnn(-c3cncnc3)c2CCN1C(=O)c1cccc(C(F)(F)F)c1Cl (centres unmarked) [Example 177, (2-Chloro-3-(trifluoromethyl)phenyl)(4-methyl-1-(pyrimidin-5-yl)-6,7-dihydro-1H-[1,2,3]triazolo[4,5-c]pyridin-5(4H)-yl)methanone], the “PBMC 10 μM (% control)” value is reported as 8.6 % control.
For Cc1cc(C)nc(-n2nnc3c2CCN(C(=O)c2cccc(Cl)c2Cl)C3C)n1 (centres unmarked) [Example 179, (2,3-dichlorophenyl)(1-(4,6-dimethylpyrimidin-2-yl)-4-methyl-6,7-dihydro-1H-[1,2,3]triazolo[4,5-c]pyridin-5(4H)-yl)methanone], the “PBMC 10 μM (% control)” value was −4.3 % control.
In the case of Cc1cncc(-n2nnc3c2CCN(C(=O)c2cccc(Cl)c2Cl)C3C)n1 (centres unmarked) [Example 180, (2,3-dichlorophenyl)(4-methyl-1-(6-methylpyrazin-2-yl)-6,7-dihydro-1H-[1,2,3]triazolo[4,5-c]pyridin-5(4H)-yl)methanone], the “PBMC 10 μM (% control)” value is reported as −3.7 % control.
For CCc1nc2c(n1-c1ccccc1)CCN(C(=O)c1cccc(C(F)(F)F)c1Cl)C2C (centres unmarked) [Example 184, (2-Chloro-3-(trifluoromethyl)phenyl)(2-ethyl-4-methyl-1-phenyl-6,7-dihydro-1H-imidazo[4,5-c]pyridin-5(4H)-yl)methanone], the “PBMC 10 μM (% control)” value was −0.7 % control.
With CC1Cc2c(nnn2-c2ccn[nH]2)CN1C(=O)c1cccc(C(F)(F)F)c1F (centres unmarked) [Example 189, (2-fluoro-3-(trifluoromethyl)phenyl)(6-methyl-1-(1H-pyrazol-3-yl)-6,7-dihydro-1H-[1,2,3]triazolo[4,5-c]pyridin-5(4H)-yl)methanone] the “PBMC 10 μM (% control)” value was 0.5 % control.
CC1Cc2c(nnn2-c2ncc(F)cn2)CN1C(=O)c1cccc(C(F)(F)F)c1Cl (centres unmarked) [Example 200, 5-{[2-Chloro-3-(trifluoromethyl)phenyl]carbonyl}-1-(5-fluoropyrimidin-2-yl)-6-methyl-4,5,6,7-tetrahydro-1H-[1,2,3]triazolo[4,5-c]pyridine] was tested, and the “PBMC 10 μM (% control)” value was 3.2 % control.

Same assay, conditions: test compound 1 μM, LPS 30 ng/ml + 0.5 mM Bz-ATP
Cn1nc(-c2ccccc2)c2c1CN(C(=O)c1cccc(Cl)c1Cl)CC2.Cn1nc2c(c1-c1ccccc1)CCN(C(=O)c1cccc(Cl)c1Cl)C2 [Example 101, 6-[(2,3-Dichlorophenyl)carbonyl]-1-methyl-3-phenyl-4,5,6,7-tetrahydro-1H-pyrazolo[3,4-c]pyridine-6-[(2,3-dichlorophenyl)carbonyl]-2-methyl-3-phenyl-4,5,6,7-tetrahydro-2H-pyrazolo[3,4-c]pyridine (1:1)] was tested, and the “PBMC 1 μM (% control)” value was 7.6 % control.
